In brackets after ≈: the same amount, converted by molar mass. Read-outs that look alike come from different tables or passages of the source.
What was measured:
Test in all cases: MIC by standard agar dilution test
Assay type in all cases: cell-based
[1] = system: Pseudomonas aeruginosa SF-2; conditions: SF2, Table II, read-out: Minimum Inhibitory Concentration
Source text: (§1) The antibacterial activity of the antibiotic compounds of this invention is illustrated by the following in vitro and in vivo test data obtained with representative compounds. In Tables I and II, the minimum inhibitory concentration (MIC) for representative compounds against a wide range of gram-positive and gram-negative bacteria are presented. The MIC values were obtained by the standard agar dilution test.

[2] = system: Pseudomonas aeruginosa Ps25; conditions: Table II, read-out: Minimum Inhibitory Concentration
Source text: as §1

[3] = system: Pseudomonas aeruginosa Ps9; conditions: Table II, read-out: Minimum Inhibitory Concentration
Source text: as §1

[4] = system: Pseudomonas aeruginosa X528
Source text: as §1

[5] = system: Enterobacter cloacae EN453; conditions: Table II, read-out: Minimum Inhibitory Concentration
Source text: as §1

[6] = system: Enterobacter aerogenes C32; conditions: Klebsiella aerogenes, Table 1, read-out: Minimum Inhibitory Concentration
Source text: as §1

[7] = system: Enterobacter aerogenes EB17; conditions: Klebsiella aerogenes, Table 1, read-out: Minimum Inhibitory Concentration
Source text: as §1

[8] = system: Enterobacter aerogenes EB6; conditions: Klebsiella aerogenes
Source text: as §1

Shigella sonnei N9 = conditions: Table 1, read-out: Minimum Inhibitory Concentration
Source text: as §1

[9] = system: Bordetella bronchiseptica 16; conditions: Table 1; Bordetella bronchiseptica 16; agar dilution; read-out: Minimum Inhibitory Concentration
Source text: as §1

[10] = system: Enterobacter aerogenes X68; conditions: Klebsiella aerogenes, Table 1, read-out: Minimum Inhibitory Concentration
Source text: as §1

Escherichia coli N10 = conditions: Table 1, read-out: Minimum Inhibitory Concentration
Source text: as §1

Serratia marcescens SE3 = system: Serratia marcescens SE3
Source text: as §1

[11] = system: Klebsiella pneumoniae X26; conditions: Table 1, read-out: Minimum Inhibitory Concentration
Source text: as §1

[12] = system: Streptococcus group D 9960; conditions: D9960, Table 1, read-out: Minimum Inhibitory Concentration
Source text: as §1

Proteus rettgeri PR7 = conditions: Providencia rettgeri, Table 1, read-out: Minimum Inhibitory Concentration
Source text: as §1

[13] = system: Haemophilus influenzae HOLT; conditions: Table 1, read-out: Minimum Inhibitory Concentration
Source text: as §1

[14] = system: Staphylococcus epidermidis EPI1; conditions: Table 1, read-out: Minimum Inhibitory Concentration
Source text: as §1

[15] = system: Enterobacter cloacae 265A; conditions: Table 1, read-out: Minimum Inhibitory Concentration
Source text: as §1

Proteus rettgeri PR2 = conditions: Providencia rettgeri, Table II, read-out: Minimum Inhibitory Concentration
Source text: as §1

[16] = system: Staphylococcus aureus S13E; conditions: read-out: Minimum Inhibitory Concentration
Source text: as §1

[17] = system: Streptococcus pneumoniae Park 1; conditions: PARK1, Table 1, read-out: Minimum Inhibitory Concentration
Source text: as §1

[18] = system: Staphylococcus aureus X400; conditions: Table 1, read-out: Minimum Inhibitory Concentration
Source text: as §1

Proteus inconstans PV25 = conditions: Providencia alcalifaciens, Table II, read-out: Minimum Inhibitory Concentration
Source text: as §1

Proteus inconstans PR33 = conditions: Providencia alcalifaciens, Table 1, read-out: Minimum Inhibitory Concentration
Source text: as §1

[19] = system: Pseudomonas aeruginosa X239
Source text: as §1

[20] = system: Staphylococcus epidermidis EPI2; conditions: Table 1, read-out: Minimum Inhibitory Concentration
Source text: as §1

Proteus rettgeri C24 = conditions: Providencia rettgeri, Table 1, read-out: Minimum Inhibitory Concentration
Source text: as §1

[21] = system: Salmonella heidelberg X514; conditions: Salmonella enterica, Table 1, read-out: Minimum Inhibitory Concentration
Source text: as §1

[22] = system: Staphylococcus aureus V41; conditions: Table 1, read-out: Minimum Inhibitory Concentration
Source text: as §1

Proteus morganii PR15 = conditions: Morganella morganii, Table 1, read-out: Minimum Inhibitory Concentration
Source text: as §1

Proteus morganii PR1 = conditions: Morganella morganii, Table II, read-out: Minimum Inhibitory Concentration
Source text: as §1

[23] = system: Pseudomonas aeruginosa Ps18; conditions: Pseudomonas aeruginosa, PS18, read-out: Minimum Inhibitory Concentration
Source text: as §1

Escherichia coli TEM = conditions: read-out: Minimum Inhibitory Concentration
Source text: as §1

[24] = system: Enterobacter cloacae EB24
Source text: as §1

[25] = system: Pseudomonas aeruginosa 4276; conditions: Table II, read-out: Minimum Inhibitory Concentration
Source text: as §1

[26] = system: Klebsiella pneumoniae KL2; conditions: Table II, read-out: Minimum Inhibitory Concentration
Source text: as §1

Escherichia coli EC14 = conditions: Table 1, read-out: Minimum Inhibitory Concentration
Source text: as §1

Serratia marcescens X99 = system: Serratia marcescens X99
Source text: as §1

[27] = system: Staphylococcus aureus X1.1; conditions: Table 1, read-out: Minimum Inhibitory Concentration
Source text: as §1

[28] = system: Haemophilus influenzae R252; conditions: Haemophilus influenzae, R252, read-out: Minimum Inhibitory Concentration
Source text: as §1

Serratia marcescens SE2 = conditions: Table II, read-out: Minimum Inhibitory Concentration
Source text: as §1

[29] = system: Streptococcus group D X66; conditions: DX66, Table 1, read-out: Minimum Inhibitory Concentration
Source text: as §1

[30] = system: Pseudomonas aeruginosa Ps15; conditions: Table II, read-out: Minimum Inhibitory Concentration
Source text: as §1

[31] = system: Salmonella typhimurium 1335; conditions: Salmonella enterica, Table 1, read-out: Minimum Inhibitory Concentration
Source text: as §1

[32] = system: Klebsiella pneumoniae KAE; conditions: Table 1, read-out: Minimum Inhibitory Concentration
Source text: as §1

[33] = system: Citrobacter freundii CF17; conditions: Table 1, read-out: Minimum Inhibitory Concentration
Source text: as §1

Enterobacter cloacae EB5 = conditions: Table 1, read-out: Minimum Inhibitory Concentration
Source text: as §1

[34] = system: Pseudomonas aeruginosa PI23; conditions: Table II, read-out: Minimum Inhibitory Concentration
Source text: as §1

[35] = system: Streptococcus pyogenes C203; conditions: Table 1, read-out: Minimum Inhibitory Concentration
Source text: as §1

[36] = system: Pseudomonas aeruginosa X48; conditions: Table II, read-out: Minimum Inhibitory Concentration
Source text: as §1

[37] = SE3, Table II, read-out: Minimum Inhibitory Concentration
[38] = X239, Table II, read-out: Minimum Inhibitory Concentration
[39] = X99, Table II, read-out: Minimum Inhibitory Concentration

For `CCN[C@H]1[C@H](O)[C@@H](O)[C@@H](O[C@H]2O[C@H]3C[C@@H](N)[C@@H](O[C@H]4[C@H](O)[C@@H](O)[C@H](N)C[C@@H]4N)O[C@@H]3[C@H](O)[C@@H]2NC)O[C@@H]1CO` [Test Compound 2, 4"-N-Ethylapramycin], the MIC [1] was 16 µg/mL (≈ 28.2 µM), the MIC [2] was 16 µg/mL (≈ 28.2 µM) and the MIC [3] was 64 µg/mL (≈ 113 µM). For the same compound, the MIC ([4]; Table 1, read-out: Minimum Inhibitory Concentration) was 32 µg/mL (≈ 56.4 µM), the “Minimum Inhibitory Concentration” value ([4]; Table II) was 32 µg/mL and the MIC [5] was 4 µg/mL (≈ 7.05 µM). It also gave an MIC [6] of 8 µg/mL (≈ 14.1 µM), an MIC [7] of 4 µg/mL (≈ 7.05 µM) and an MIC ([8]; EB6, read-out: Minimum Inhibitory Concentration) of 2 µg/mL (≈ 3.52 µM). It also gave an MIC (Shigella sonnei N9) of 16 µg/mL (≈ 28.2 µM), an MIC [9] of 32 µg/mL (≈ 56.4 µM) and an MIC [10] of 8 µg/mL (≈ 14.1 µM). For the same compound, the MIC (Escherichia coli N10) was 16 µg/mL (≈ 28.2 µM), the MIC (Serratia marcescens SE3; SE3, Table 1, read-out: Minimum Inhibitory Concentration) was 16 µg/mL (≈ 28.2 µM) and the MIC (Serratia marcescens SE3; [37]) was 4 µg/mL (≈ 7.05 µM). It also gave an MIC [11] of 8 µg/mL (≈ 14.1 µM), an MIC [12] greater than 128 µg/mL and an MIC (Proteus rettgeri PR7) of 8 µg/mL (≈ 14.1 µM). It also gave an MIC [13] of 2 µg/mL (≈ 3.52 µM), an MIC [14] of 8 µg/mL (≈ 14.1 µM) and an MIC [15] of 8 µg/mL (≈ 14.1 µM). For the same compound, the MIC (Proteus rettgeri PR2) was 8 µg/mL (≈ 14.1 µM), the MIC [16] was 16 µg/mL (≈ 28.2 µM) and the MIC [17] was 32 µg/mL (≈ 56.4 µM). It also gave an MIC [18] of 32 µg/mL (≈ 56.4 µM), an MIC (Proteus inconstans PV25) of 4 µg/mL (≈ 7.05 µM) and an MIC (Proteus inconstans PR33) of 4 µg/mL (≈ 7.05 µM). The MIC ([19]; X239, Table 1, read-out: Minimum Inhibitory Concentration) was 16 µg/mL (≈ 28.2 µM), the MIC [19, 38] was 16 µg/mL (≈ 28.2 µM) and the MIC [20] was 32 µg/mL (≈ 56.4 µM). For the same compound, the MIC (Proteus rettgeri C24) was 8 µg/mL (≈ 14.1 µM), the MIC [21] was 16 µg/mL (≈ 28.2 µM) and the MIC [22] was 16 µg/mL (≈ 28.2 µM). It also gave an MIC (Proteus morganii PR15) of 16 µg/mL (≈ 28.2 µM), an MIC (Proteus morganii PR1) of 4 µg/mL (≈ 7.05 µM) and an MIC [23] of 4 µg/mL (≈ 7.05 µM). The MIC (Escherichia coli TEM) was 4 µg/mL (≈ 7.05 µM), the MIC ([24]; Table II, Enterobacter cloacae EB24, agar dilution, read-out: Minimum Inhibitory Concentration) was 4 µg/mL (≈ 7.05 µM) and the MIC [25] was 8 µg/mL (≈ 14.1 µM). The MIC [26] was 4 µg/mL (≈ 7.05 µM), the MIC (Escherichia coli EC14) was 8 µg/mL (≈ 14.1 µM) and the MIC (Serratia marcescens X99; X99, Table 1, read-out: Minimum Inhibitory Concentration) was 8 µg/mL (≈ 14.1 µM). It also gave an MIC (Serratia marcescens X99; [39]) of 2 µg/mL (≈ 3.52 µM), an MIC [27] of 8 µg/mL (≈ 14.1 µM) and an MIC [28] of 1 µg/mL (≈ 1.76 µM). For the same compound, the MIC (Serratia marcescens SE2) was 4 µg/mL (≈ 7.05 µM), the MIC [29] was greater than 128 µg/mL and the MIC [30] was 16 µg/mL (≈ 28.2 µM). The MIC [31] was 16 µg/mL (≈ 28.2 µM), the MIC [32] was 8 µg/mL (≈ 14.1 µM) and the MIC [33] was 16 µg/mL (≈ 28.2 µM). The MIC (Enterobacter cloacae EB5) was 16 µg/mL (≈ 28.2 µM), the MIC [34] was greater than 128 µg/mL and the MIC [35] was 32 µg/mL (≈ 56.4 µM).
In the case of `CN[C@@H]1[C@@H](O[C@H]2O[C@H](CO)[C@@H](NCc3ccccc3)[C@H](O)[C@H]2O)O[C@H]2C[C@@H](N)[C@@H](O[C@H]3[C@H](O)[C@@H](O)[C@H](N)C[C@@H]3N)O[C@@H]2[C@@H]1O` [Test Compound 3, 4"-N-Benzylapramycin], the MIC [1] is reported as 128 µg/mL (≈ 203 µM), the MIC [2] is reported as 64 µg/mL (≈ 102 µM) and the MIC [3] is reported as greater than 128 µg/mL. For the same compound, the MIC ([4]; Table II, read-out: Minimum Inhibitory Concentration) was greater than 128 µg/mL, the MIC [5] was 8 µg/mL (≈ 12.7 µM) and the MIC ([8]; Table II, Enterobacter aerogenes EB6, agar dilution, read-out: Minimum Inhibitory Concentration) was 8 µg/mL (≈ 12.7 µM). For the same compound, the MIC (Serratia marcescens SE3; [37]) was 8 µg/mL (≈ 12.7 µM), the MIC (Proteus rettgeri PR2) was greater than 128 µg/mL and the MIC (Proteus inconstans PV25) was 64 µg/mL (≈ 102 µM). For the same compound, the MIC [19, 38] was 128 µg/mL (≈ 203 µM), the MIC (Proteus morganii PR1) was 32 µg/mL (≈ 50.8 µM) and the MIC ([24]; Enterobacter cloacae, EB24, read-out: Minimum Inhibitory Concentration) was 4 µg/mL (≈ 6.35 µM). For the same compound, the MIC [25] was greater than 128 µg/mL, the MIC [26] was 8 µg/mL (≈ 12.7 µM) and the MIC (Serratia marcescens X99; [39]) was 4 µg/mL (≈ 6.35 µM). The MIC [36] was greater than 128 µg/mL, the MIC (Serratia marcescens SE2) was 16 µg/mL (≈ 25.4 µM) and the MIC [30] was 128 µg/mL (≈ 203 µM). The MIC [34] was greater than 128 µg/mL.
